# Reference: US20260325511A1, “METHODS OF USE OF A LIPOSOMAL COMPOSITION COMPRISING AN ATR INHIBITOR” (Jazz Pharmaceuticals Therapeutics, Inc., priority 2023, published 2026)
# Assays:
# Assay type in all cases: in vivo, mouse
# [1] = tested on: non-small-cell lung cancer model (CTG-0828 PDX); test: Efficacy in NSCLC model CTG-0828 PDX (Example 7)
# Experimental: An efficacy study similar to those described in Example 3 above, was repeated where liposomal ATR inhibitor (Compounds A) and/or irinotecan were dosed at 50 mg/kg once a week in a non-small-cell lung cancer model (CTG-0828 PDX) for 5 weeks (QWx5) and compared to combinations of liposomal ATR inhibitor (Compounds A) and irinotecan. Animal study groups are disclosed in Table 10 (n=8 per group).
# CRC Colo205 [2] = test: Dosing schedule study, efficacy similar to Example 3 (Example 4B); design: dose or concentration left out as unconfirmed; conditions: vs vehicle; day 44 from inoculation (day 12 from start of measurements)
# Experimental: (§1) Subcutaneous tumor models were initiated on 6-8 week old, female athymic nude mice. A cell suspension containing 5e6/100 μL CRC Colo205 cells in 1:1 PBS: Matrigel was subcutaneously injected into the hind flank of […] mice. Tumors were measured three times a week by digital caliper and reported as volume, calculated as V=π×1×w∧2 wherein 1 and w denote the longest and shortest tumor diameter respectively. Engrafted mice were then randomized into cohorts for treatment at an average tumor size of 80 mm^3.
# (§2) Mice were organized into appropriate groups consisting of control (empty vehicle) and treatment groups including free irinotecan, irinotecan in combination with liposomal Compound A or liposomal Compound C, or irinotecan and berzosertib. […] Animals were weighed and monitored for survival and in-life observations were collected at the time of weight measurement. Mice were monitored individually to endpoint which was either an individual tumor weight of 2000 mm^3 or other defined risk factors, whichever came first.
# Efficacy study similar to those described in Example 3 were also repeated where liposomal ATR inhibitors (Compounds A, C, or berzosertib) were dosed once a week or three times a week. Animal study groups are disclosed in Table 5B (n=8 per group). […]
# CRC Colo205 [3] = test: Tumor efficacy study of liposomal ATR inhibitors + irinotecan, CRC Colo205 model (Example 3)
# Experimental: Tumor efficacy studies were used to compare the efficacy of ATR inhibitors (Compounds A and C) in liposomal formulations in combination with irinotecan against irinotecan as a single agent in CRC Colo205 model.
# as §1
# Mice were organized into appropriate groups consisting of control (empty vehicle) and treatment groups including free irinotecan, irinotecan in combination with liposomal Compound A or liposomal Compound C, or irinotecan and berzosertib. Mice were administered free drug orally, and injected intravenously for liposomal compounds, with the required volume of sample to administer the prescribed dose to the animals based on individual mouse weights on dosing days. Animals were weighed and monitored for survival and in-life observations were collected at the time of weight measurement. Mice were monitored individually to endpoint which was either an individual tumor weight of 2000 mm^3 or other defined risk factors, whichever came first.
# Animal study groups are disclosed in Table 2 (n=8 per group). Irinotecan was administered at 50 mg/kg via IP in a liposomal-free composition, once a week. Liposomal ATR inhibitors were administered at either 20 mg/kg (Group7) or 40 mg/kg (Groups 3, 5, 6, 8-10) via IV every other day. Berzosertib, clinical benchmark, was administered 5 consecutive days with 2 days off schedule. Last dose of any therapeutically active agent was administered on day 33.
# Table 3 summarizes the tumor growth inhibition (TGI %) compared to the vehicle (Group 2) and tumor growth dynamic (TGD) compared to irinotecan single agent ([…]).
# CRC Colo205 [4] = test: Dosing schedule study, once a week, efficacy similar to Example 3 (Example 4A); conditions: vs vehicle; day 28 from inoculation (day 14 from start of dosing); irinotecan 50 mg/kg IP
# [5] = tested on: colorectal carcinoma (CRC) model (Colo205); test: Efficacy in colorectal cancer model Colo205 (Example 5); conditions: Lipo-G Comp. A 10-40 mg/kg IV QW or irinotecan 50 mg/kg IP QW
# Experimental: as §1, §2
# An efficacy study similar to those described in Example 3 above, was repeated where liposomal ATR inhibitors (Compounds A) were dosed once a week in a colorectal carcinoma (CRC) model (Colo205). Animal study groups are disclosed in Table 7 (n=8 per group)
# [6] = irinotecan 50 mg/kg IP QW (reference)
smiles,measurement,setting,value
"CCc1c2c(nc3ccc(OC(=O)N4CCC(N5CCCCC5)CC4)cc13)-c1cc3c(c(=O)n1C2)COC(=O)[C@]3(O)CC [Irinotecan, irinotecan]",CR tumor regression rate,[1]; 50 mg/kg QWx5,0%
same,Tumor Growth Delay Index (TGDI),[1]; 50 mg/kg QWx5,4.4
same,survival: median time to reach and exceed a tumor burden of 1 cm,"[1]; 50 mg/kg QWx5, statistically significant improvement",100 days
same,Max % Tumor Grown Inhibition (TGI),"[1]; 50 mg/kg each agent, QWx5",91%
same,Regression * (% max),"[1]; 50 mg/kg each agent, QWx5",60%
same,TGDI (vs. vehicle),"[1]; 50 mg/kg each agent, QWx5",4.4
same,TGI % D 44(d 12),CRC Colo205 [2],0%
same,TGI % (vs. vehicle) d 20,"CRC Colo205 [3]; day 20, irinotecan 50 mg/kg IP QW",67%
same,TGI % (vs. vehicle) d 27,"CRC Colo205 [3]; day 27, irinotecan 50 mg/kg IP QW",74%
same,CR % (complete response),CRC Colo205 [3]; irinotecan 50 mg/kg IP QW,0%
same,ORR % (objective response rate),CRC Colo205 [3]; irinotecan 50 mg/kg IP QW,0%
same,TGD (vs. single agent) %,CRC Colo205 [3]; [6],0%
same,TGD (vs. single agent) Index,CRC Colo205 [3]; [6],1.0
same,"PR# (partial response), number of mice","CRC Colo205 [3]; irinotecan 50 mg/kg IP QW, n=8",0 mice
same,"Total R (response), number of mice","CRC Colo205 [3]; irinotecan 50 mg/kg IP QW, n=8",0 mice
same,TGI % d 28 (d 14),CRC Colo205 [4],55.4%
same,activity as single agent,[5],no/limited activity
